The record followed here is US20170165239A1, “USE OF BETA-CARBOLINE ALKALOID IN INHIBITING XANTHINE OXIDASE ACTIVITY” (Food Industry Research And Development Institute, priority 2015, published 2017).

SMILES strings stand for the structures. pIC50: −log10 of the molar value.

This assay deals with xanthine oxidase (Homo sapiens, UniProt P47989). The assay is described as follows: Xanthine oxidase inhibitory activity measured by HPLC (xanthine content). The conditions noted are these: Flazin samples 0.625-20.0 mg/ml; xanthine 50 μg/ml, xanthine oxidase 0.1 U, 30° C., 30 min; FIG. 1. It counts as biochemical. The method, then: Xanthine oxidase inhibitory activity was measured as follows. Firstly, concentrations (0.625, 1.25, 2.5, 5.0, 10.0 and 20.0 mg/ml) of Flazin samples were prepared. Then, xanthine oxidase inhibitory activity was measured by HPLC by the following procedure. In a reaction tube, 880 μl of xanthine (50 μg/ml in 100 mM PBS) and 40 μl of 50 mM PBS or 40 μl of the Flazin samples were premixed, and 80 μl […] of xanthine oxidase (0.1 U) was added to initiate the reaction. The reaction was incubated at 30° C. for 30 min., after which an equal volume of absolute ethanol was added to terminate the reaction. The terminated reaction was filtered through a 0.22 μm membrane filter and the content of xanthine in the reactions was analyzed by HPLC. Xanthine oxidase inhibitory activity of the samples was calculated as follows: […]
Chain of xanthine oxidase (P47989 whole entry, species assumed): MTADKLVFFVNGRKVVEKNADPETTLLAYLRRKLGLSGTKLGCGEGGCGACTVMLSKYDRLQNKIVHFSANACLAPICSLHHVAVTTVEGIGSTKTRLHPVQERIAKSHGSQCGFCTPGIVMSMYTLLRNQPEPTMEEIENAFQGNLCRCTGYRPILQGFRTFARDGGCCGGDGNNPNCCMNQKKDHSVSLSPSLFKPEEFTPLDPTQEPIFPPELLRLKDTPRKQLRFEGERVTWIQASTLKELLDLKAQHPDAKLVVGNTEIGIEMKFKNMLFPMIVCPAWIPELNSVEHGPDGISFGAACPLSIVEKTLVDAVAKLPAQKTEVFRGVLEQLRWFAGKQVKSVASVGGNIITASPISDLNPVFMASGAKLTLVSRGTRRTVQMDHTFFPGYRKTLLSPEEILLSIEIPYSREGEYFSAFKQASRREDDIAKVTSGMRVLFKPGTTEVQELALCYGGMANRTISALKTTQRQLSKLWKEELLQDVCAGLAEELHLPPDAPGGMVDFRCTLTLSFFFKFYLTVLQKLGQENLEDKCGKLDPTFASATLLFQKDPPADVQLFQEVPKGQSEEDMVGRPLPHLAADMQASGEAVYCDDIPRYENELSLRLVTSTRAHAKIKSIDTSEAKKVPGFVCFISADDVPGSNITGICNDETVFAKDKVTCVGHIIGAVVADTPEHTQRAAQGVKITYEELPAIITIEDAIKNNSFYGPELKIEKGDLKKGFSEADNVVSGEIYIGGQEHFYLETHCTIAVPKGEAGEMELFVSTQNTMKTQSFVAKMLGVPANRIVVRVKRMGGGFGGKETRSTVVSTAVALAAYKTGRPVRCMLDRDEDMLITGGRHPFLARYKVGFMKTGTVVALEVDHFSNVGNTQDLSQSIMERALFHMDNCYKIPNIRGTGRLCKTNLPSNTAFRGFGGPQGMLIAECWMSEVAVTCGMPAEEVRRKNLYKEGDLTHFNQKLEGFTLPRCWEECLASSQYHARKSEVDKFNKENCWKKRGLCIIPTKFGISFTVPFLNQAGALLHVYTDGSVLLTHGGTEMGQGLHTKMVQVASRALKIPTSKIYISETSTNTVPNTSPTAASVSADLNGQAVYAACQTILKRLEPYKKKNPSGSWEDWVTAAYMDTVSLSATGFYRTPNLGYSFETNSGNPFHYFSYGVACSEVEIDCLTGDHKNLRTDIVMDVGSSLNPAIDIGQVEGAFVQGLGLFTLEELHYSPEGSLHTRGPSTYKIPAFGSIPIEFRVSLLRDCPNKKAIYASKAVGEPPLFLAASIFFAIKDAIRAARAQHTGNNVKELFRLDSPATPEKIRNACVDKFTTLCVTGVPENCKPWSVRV

Turning to `O=C(O)c1cc2c([nH]c3ccccc32)c(-c2ccc(CO)o2)n1` [Flazin, 1-[5-(hydroxymethyl)furan-2-yl]-9H-pyrido[3,4-b]indole-3-carboxylic acid], the pIC50 is about 1.49.

One may read the pIC50 as −log10 of the IC50, conventionally taken in molar units.
